Test results published in patent publication US20260041744A1, “Methods for Treating Pompe Disease” (Amicus Therapeutics, Inc., priority 2022, published 2026).

Tests used:
adult subjects with LOPD [1] = assay: Study ATB200-07 (OLE): CK
Method: The Phase III double-blind PROPEL study (NCT03729362; ATB200-03) described in Examples 9 and 10 above compared the investigational two-component therapy cipaglucosidase alfa/miglustat (cipa/mig) with alglucosidase alfa/placebo (alglu) in adults with late-onset Pompe disease (LOPD) over 52 weeks. The ongoing open-label extension (OLE) of PROPEL (NCT04138277; ATB200-07) evaluates long-term safety and efficacy of cipa/mig. Outcomes include 6 minute walk distance (6MWD), forced vital capacity (FVC), creatine kinase (CK) and hexose tetrasaccharide (Hex4) levels and safety. Data are reported as change from the PROPEL baseline to OLE week 52 (104 weeks after the PROPEL baseline).

adult subjects with LOPD [2] = assay: Study ATB200-07 (OLE of PROPEL): 6MWD and % predicted 6MWD; assay type: in vivo, human
Description: The study doses and schedule are maintained from Study ATB200-03.
Efficacy data are presented in this summary as change from the baseline of Study ATB200-03 (OLE-ES Population).

[3] = tested on: adult subjects with Pompe disease; assay: Pooled Studies ATB200-02/03/07 (Pool 2): sitting % predicted FVC by exposure interval; settings: exposure interval ≤15 months
Method: The pooled efficacy analyses presented within this section include the outlier (Pool 2). […] Pooled efficacy analyses excluding the outlier subject (Pool 2A) were also performed.
No long-term data for the alglucosidase alfa/placebo group are available, as all subjects switched to cipaglucosidase alfa/miglustat in Study ATB200-07.
Efficacy data from the 3 adult Pompe disease clinical studies were pooled and analyzed to further support the long-term efficacy of cipaglucosidase alfa/miglustat in adult subjects. Data from non-ambulatory subjects (Study ATB200-02 Cohort 2) were not included in the pool as there was little overlap of efficacy endpoints for this group with the various ambulatory groups, such as 6MWD and lower MMT.
The 3 adult Pompe disease clinical studies were pooled as follows: • The cipaglucosidase alfa/miglustat treatment group consists of: • All ambulatory subjects in Study ATB200-02 (Cohorts 1, 3, and 4), • All subjects randomized to the cipaglucosidase alfa/miglustat treatment group in Study ATB200-03, and • All subjects enrolled in Study ATB200-07. • The alglucosidase alfa/placebo treatment group consists of: • All subjects randomized to the ERT treatment group in Study ATB200-03.

adult subjects with LOPD [4] = assay: Study ATB200-07 (OLE): PROMIS-Fatigue; assay type: in vivo, human
Description: Analysis populations presented in this summary are 1) the OLE-ES Population (all subjects who satisfied the eligibility requirements (based on the inclusion and exclusion criteria) and entered Study ATB200-07 and 2) the OLE-FAS Population (all subjects who entered the OLE Study ATB200-07 who had both a valid ATB200-07 baseline and at least 1 post-baseline assessment for at least 1 of the 6 main efficacy endpoints [6MWD, sitting % predicted FVC, MMT-lower extremities, PROMIS-Physical Function, PROMIS-Fatigue, and GSGC]).

CIMPR = CIMPR (Homo sapiens, UniProt P11717); assay: CIMPR Overlay Assay (far-western blot); assay type: binding
Method: The CIMPR Overlay Assay is a variation on a far-western blot where proteins are separated on an SDS-PAGE, transferred to a nitrocellulose membrane, and incubated with purified CIMPR in the place of a primary antibody as in a conventional western blot. Binding of CIMPR to M6P-containing glycans on rhGAA proteins is then visualized by an anti-CIMPR antibody.

[5] = tested on: adult subjects with late-onset Pompe disease (LOPD); assay: Study ATB200-03 (PROPEL): urinary hexose tetrasaccharide (Hex4/Glc4); assay type: in vivo, human
[6] = tested on: LOPD population (PROPEL target population); assay: Multi-level network meta-regression (ML-NMR) indirect treatment comparison, 6MWD and FVC change from baseline at week 52; parameters: species or system human; settings: base-case scenario
Method: Using patient-level data from the PROPEL randomized clinical trial (RCT) plus aggregate published data from other RCTs, Phase I/II and open label extension trials, a multi-level network meta-regression was conducted, adjusting for various baseline covariates including previous ERT duration. The base case scenario had covariates resembling the PROPEL population (naïve and ERT-experienced) and analyzed 6MWD and FVC change from baseline at 52 weeks.
An ITC providing relative effect estimates in the target population of interest (ie an LOPD population including a mix of ERT-naïve and ERT-experienced subjects as in the pivotal Phase III trial comparing Cipa+mig with Alglu [PROPEL]) was performed.
A systematic literature review (SLR) was conducted to identify relevant published clinical studies of ERTs in LOPD. Outcomes assessed were change from baseline in 6-minute walking distance (6MWD) (m) and in forced vital capacity (FVC; % predicted) at week 52, acknowledged by clinicians, HTA agencies and payers as key LOPD trial endpoints. Aggregate results on 6MWD and FVC change from baseline over time and baseline characteristics (age, gender, ethnicity, previous ERT duration, baseline 6MWD and baseline FVC) were extracted from included studies.
A multi-level network meta regression (ML-NMR) was performed, which is an extension of standard network meta-analyses (NMAs) that take into account the effect of study-level covariates, and that can be applied to any connected network with any mixture of individual patient-level data (IPD) and aggregate data. ML-NMR is an accepted method by the National Institute for Health and Care Excellence (NICE) in support of cost effectiveness analysis. Single-arm study results were matched to appropriate comparator arms of the comparative studies to allow for inclusion into the network. Mean treatment differences with associated 95% credible intervals (CrIs) were calculated for 6MWD and FVC change from baseline at week 52.
A base-case scenario was evaluated in which all covariates were set to the target population of the PROPEL trial. To study the impact of previous ERT duration on relative effects, ERT duration value was varied, keeping remaining covariate values as in the base-case scenario. A sensitivity analysis was performed by excluding all matched single-arm evidence from the network to assess its impact on the results.
Both fixed effects (FE) and random effects (RE) ML-NMR models were applied and the deviance information criteria (DIC) was used to assess goodness-of-fit of the models and to identify the appropriate model (FE or RE model) for the data. Models were implemented in a Bayesian framework using Stan with help of the R package multinma.
In the base-case scenario, the covariates were set to the baseline characteristics of the target population (ie the PROPEL trial; see Table 20), and time was set to 52 weeks.

[7] = tested on: adult subjects with late-onset Pompe disease (LOPD); assay: Study ATB200-03: summary across primary, secondary and biomarker endpoints (incl. SVC, FVC supine, MIP, MEP, SNIP, MMT upper/overall, QMT, TUG); settings: ITT excluding outlier subject
Description: • overall physical wellbeing • effort of breathing • muscle strength • muscle function • ability to move around • activities of daily living • energy level • level of muscular pain • actual value of the subject's functional status (improving, stable, or declining) at Week 52, as measured by the Physician's Global Impression of Change • change from baseline to Week 52 in the following measures of pulmonary function, as follows: • sitting FVC (% predicted) • MIP (cmH2O) • MIP (% predicted) • MEP (cmH2O) • MEP (% predicted) • SNIP (cmH2O)

[8] = Study ATB200-03 baseline, OLE-ES Population excluding Subject 4005-2511
[9] = change from ATB200-03 baseline at Week 104, alglucosidase alfa/placebo group switched to cipaglucosidase alfa/miglustat at Week 52, OLE-ES excluding Subject 4005-2511

CIMPR, sequence (P11717 41-2491, species assumed): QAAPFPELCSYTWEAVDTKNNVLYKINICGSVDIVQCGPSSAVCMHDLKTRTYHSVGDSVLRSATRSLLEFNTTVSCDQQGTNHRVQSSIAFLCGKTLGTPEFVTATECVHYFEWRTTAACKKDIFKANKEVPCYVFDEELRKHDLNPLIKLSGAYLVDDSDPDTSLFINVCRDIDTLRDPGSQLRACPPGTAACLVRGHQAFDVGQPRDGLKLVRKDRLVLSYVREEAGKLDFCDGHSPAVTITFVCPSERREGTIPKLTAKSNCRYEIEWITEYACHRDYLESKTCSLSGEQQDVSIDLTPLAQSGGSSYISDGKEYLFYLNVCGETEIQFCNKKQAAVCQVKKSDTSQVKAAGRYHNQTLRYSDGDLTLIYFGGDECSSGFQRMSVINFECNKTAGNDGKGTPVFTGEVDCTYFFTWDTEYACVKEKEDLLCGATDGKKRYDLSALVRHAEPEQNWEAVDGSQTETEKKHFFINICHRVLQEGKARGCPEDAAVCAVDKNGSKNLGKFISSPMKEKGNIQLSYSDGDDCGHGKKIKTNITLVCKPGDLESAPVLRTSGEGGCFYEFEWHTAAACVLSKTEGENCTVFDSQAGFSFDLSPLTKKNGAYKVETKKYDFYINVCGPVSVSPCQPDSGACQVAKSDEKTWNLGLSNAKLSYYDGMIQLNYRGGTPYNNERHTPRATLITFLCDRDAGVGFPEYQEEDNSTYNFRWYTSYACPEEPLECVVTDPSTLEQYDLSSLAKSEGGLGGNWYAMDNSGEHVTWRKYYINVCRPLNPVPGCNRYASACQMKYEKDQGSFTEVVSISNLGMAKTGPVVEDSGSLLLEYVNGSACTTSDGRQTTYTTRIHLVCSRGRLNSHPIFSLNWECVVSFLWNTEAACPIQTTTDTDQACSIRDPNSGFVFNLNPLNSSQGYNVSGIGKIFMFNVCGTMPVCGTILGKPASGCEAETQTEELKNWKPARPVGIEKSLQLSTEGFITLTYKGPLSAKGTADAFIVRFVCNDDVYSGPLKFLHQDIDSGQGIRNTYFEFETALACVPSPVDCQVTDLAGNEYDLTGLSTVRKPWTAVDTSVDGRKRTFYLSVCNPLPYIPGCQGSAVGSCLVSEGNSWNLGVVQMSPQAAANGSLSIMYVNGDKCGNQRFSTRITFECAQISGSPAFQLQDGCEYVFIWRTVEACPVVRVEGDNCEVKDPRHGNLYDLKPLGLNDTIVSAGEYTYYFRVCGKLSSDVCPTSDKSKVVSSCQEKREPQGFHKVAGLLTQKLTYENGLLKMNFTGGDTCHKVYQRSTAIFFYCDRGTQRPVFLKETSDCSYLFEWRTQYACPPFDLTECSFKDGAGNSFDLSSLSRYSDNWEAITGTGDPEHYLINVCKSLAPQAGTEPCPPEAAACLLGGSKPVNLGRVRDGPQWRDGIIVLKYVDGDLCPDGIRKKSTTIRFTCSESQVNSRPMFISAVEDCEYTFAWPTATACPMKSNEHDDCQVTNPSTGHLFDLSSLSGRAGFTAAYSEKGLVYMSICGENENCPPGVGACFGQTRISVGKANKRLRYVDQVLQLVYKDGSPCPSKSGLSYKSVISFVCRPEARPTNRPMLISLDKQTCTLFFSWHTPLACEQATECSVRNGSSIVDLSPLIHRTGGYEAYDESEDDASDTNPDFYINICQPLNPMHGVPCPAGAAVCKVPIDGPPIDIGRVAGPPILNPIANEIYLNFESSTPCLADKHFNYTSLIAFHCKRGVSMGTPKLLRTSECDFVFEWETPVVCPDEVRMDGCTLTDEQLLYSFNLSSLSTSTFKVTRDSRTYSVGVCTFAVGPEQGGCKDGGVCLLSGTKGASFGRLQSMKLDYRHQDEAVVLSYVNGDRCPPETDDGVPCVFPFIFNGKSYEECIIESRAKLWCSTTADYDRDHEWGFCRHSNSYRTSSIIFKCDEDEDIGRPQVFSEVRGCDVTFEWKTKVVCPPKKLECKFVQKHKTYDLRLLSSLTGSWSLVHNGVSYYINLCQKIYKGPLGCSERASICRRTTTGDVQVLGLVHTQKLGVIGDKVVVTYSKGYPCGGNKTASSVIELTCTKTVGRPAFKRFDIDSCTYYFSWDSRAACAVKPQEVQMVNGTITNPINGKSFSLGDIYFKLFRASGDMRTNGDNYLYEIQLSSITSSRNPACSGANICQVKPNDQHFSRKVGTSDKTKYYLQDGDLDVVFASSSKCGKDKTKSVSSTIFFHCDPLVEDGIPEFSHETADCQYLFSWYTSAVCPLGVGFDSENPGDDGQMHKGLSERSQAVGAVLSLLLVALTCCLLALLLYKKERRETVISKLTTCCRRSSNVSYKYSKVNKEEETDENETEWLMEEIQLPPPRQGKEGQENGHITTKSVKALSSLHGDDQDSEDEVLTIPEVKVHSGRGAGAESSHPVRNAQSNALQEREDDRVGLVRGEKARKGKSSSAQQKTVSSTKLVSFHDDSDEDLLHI

In the case of alglucosidase alfa [reference compound], the “CK, mean BSL” value (adult subjects with LOPD [1]; [8]) is reported as 527.4, the “CK, mean 52-wk CFB” value (adult subjects with LOPD [1]; change from ATB200-03 baseline at Week 52, OLE-ES excluding Subject 4005-2511) is reported as 41.0 and the “CK, mean 104-wk CFB” value (adult subjects with LOPD [1]; [9]) is reported as −173.6. For the same substance, the “6MWD, mean BSL” value (adult subjects with LOPD [2]; [8]) was 351.7 m, the “6MWD, mean 52-wk CFB” value (adult subjects with LOPD [2]; change from ATB200-03 baseline at Week 52 (= ATB200-07 baseline), OLE-ES excluding Subject 4005-2511) was 8.0 m and the “6MWD, mean 104-wk CFB” value (adult subjects with LOPD [2]; [9]) was 3.3 m. For the same substance, the “Sitting % Predicted FVC Baseline, Mean” value ([3]; Pool 2, Efficacy Population including the outlier) was 70.04 % predicted, the “Sitting % Predicted FVC Baseline, Median” value ([3]; Pool 2, including the outlier) was 71.25 % predicted and the “sitting % predicted FVC change from baseline, median” value ([3]; Pool 2, including the outlier) was −3.00 % predicted. The “sitting % predicted FVC change from baseline, mean” value ([3]; last available post-baseline value − baseline, Pool 2, including the outlier) was −3.64 % predicted, the “PROMIS-Fatigue, mean BSL” value (adult subjects with LOPD [4]; [8]) was 21.2 and the “PROMIS-Fatigue, mean 52-wk CFB” value (adult subjects with LOPD [4]; change from ATB200-03 baseline at Week 52, decrease indicates improvement, OLE-ES excluding Subject 4005-2511) was −1.7. For the same substance, the “PROMIS-Fatigue, mean 104-wk CFB” value (adult subjects with LOPD [4]; [9]) was −0.1, the “CIMPR binding in overlay assay” value (CIMPR) was “a band with a much lower intensity” and the “mean urinary Glc4 concentration at Week 52” value ([5]; ERT-experienced patients (baseline 4.6 and 7.2 mmol/mol)) was 9.1 mmol/mol. For the same substance, the “mean change in urine Hex-4 after 52 weeks” value ([5]; combined ERT switch and ERT naïve population) was “+11.0%”, the “relative effect, sensitivity analysis (RCT data only), 6MWT and FVC” value [6] was “numerically favourable versus placebo” and the “parameters with statistically significant decline from baseline at Week 52” value [7] was “GSGC, FVC sitting, FVC supine, SVC sitting, and CK”. The “parameters with statistically significant improvement from baseline at Week 52” value [7] was “not observed for any parameters”.
